From patent US20220288069A1, “INHIBITORS OF TYROSINE KINASE” (BridGene Biosciences, Inc., priority 2019, published 2022)

Tests used:
FLT3 = target: T1, FLT3 (Homo sapiens, UniProt P36888); test: Caliper mobility shift kinase inhibition assay, FLT3; type: biochemical; conditions: recombinant kinase; enzyme 0.1 nM, ATP 95 μM, incubation 3 hr
T1 construct: purchased ThermoFisher PV3182
T1 sequence (P36888 27-993): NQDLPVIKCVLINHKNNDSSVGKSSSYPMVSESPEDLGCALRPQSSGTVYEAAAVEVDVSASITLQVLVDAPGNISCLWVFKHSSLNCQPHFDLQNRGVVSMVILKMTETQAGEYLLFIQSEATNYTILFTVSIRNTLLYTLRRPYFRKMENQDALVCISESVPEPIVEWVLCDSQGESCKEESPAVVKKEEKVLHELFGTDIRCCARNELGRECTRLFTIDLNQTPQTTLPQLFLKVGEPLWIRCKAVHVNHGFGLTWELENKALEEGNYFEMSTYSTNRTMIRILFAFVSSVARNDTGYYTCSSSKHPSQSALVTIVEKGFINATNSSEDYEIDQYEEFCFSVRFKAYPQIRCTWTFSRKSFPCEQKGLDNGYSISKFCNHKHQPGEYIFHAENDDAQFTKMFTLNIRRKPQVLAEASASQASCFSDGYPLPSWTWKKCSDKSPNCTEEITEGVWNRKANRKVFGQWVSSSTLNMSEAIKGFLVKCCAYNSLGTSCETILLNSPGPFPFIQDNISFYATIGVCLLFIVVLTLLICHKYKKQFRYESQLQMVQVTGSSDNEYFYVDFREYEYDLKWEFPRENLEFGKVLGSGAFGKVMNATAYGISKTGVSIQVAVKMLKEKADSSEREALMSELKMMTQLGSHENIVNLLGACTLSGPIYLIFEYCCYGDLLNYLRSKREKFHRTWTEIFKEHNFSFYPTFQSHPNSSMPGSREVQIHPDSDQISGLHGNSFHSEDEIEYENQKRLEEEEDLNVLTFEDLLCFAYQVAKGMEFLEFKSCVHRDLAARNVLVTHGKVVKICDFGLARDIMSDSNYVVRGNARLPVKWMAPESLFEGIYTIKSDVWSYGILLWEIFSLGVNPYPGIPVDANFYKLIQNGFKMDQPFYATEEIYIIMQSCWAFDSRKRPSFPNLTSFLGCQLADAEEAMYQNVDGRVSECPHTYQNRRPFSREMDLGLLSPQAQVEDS
Experimental: (§1) Compounds' inhibition of recombinant kinases (FGR, FLT3, FMS, KIT, or RON) was measured using Caliper mobility shift assay, which is based on the difference in capillary electrophoresis mobility of a fluorescent-tagged peptide as a result of a phosphorylation by the kinase under study. Reactions were started by the addition of various concentrations of a compound (originally in DMSO solution) to a kinase solution in assay buffer followed by addition of a mixture of ATP and a fluorescent-tagged peptide substrate in assay buffer. Concentrations of the enzyme, ATP and the peptide were pre-optimized so that 15% substrate conversion to ensure initial velocity measurements. After incubation for 3 hours at room temperature, the kinase reaction was quenched by the addition of a concentrated EDTA solution before analysis on a LabChip EZ Reader II to yield percentage inhibition by comparing to the DMSO control.
(§2) Table 2 below summarizes the assay conditions for the characterization of the kinase inhibition properties of the disclosed compounds.

KIT = target: T2, KIT (Homo sapiens, UniProt P10721); test: Caliper mobility shift kinase inhibition assay, KIT; type: biochemical; conditions: recombinant kinase; enzyme 0.9 nM, ATP 400 μM, incubation 17 hr
T2 construct: purchased BPS 40250
Experimental: as §1, with “After incubation for 3 hours at room temperature, the kinase reaction was quenched by the addition of a concentrated EDTA solution before analysis on a LabChip EZ Reader II to yield percentage inhibition by comparing to the DMSO control.” left out
as §2

MV4−11 = test: Cell viability assay (CellTiter-Glo), MV4-11; type: cell-based; conditions: Homo sapiens, MV4-11 cells, 72 hr
Experimental: (§3) Cell viability assay was performed based on the following brief procedures. Cells were plated at the density of 5K/well with volume of […] in 96-well white plate and clear bottom plates. 20 μL of veh. or compound was added at proper concentration to the well. The final volume is 200 μL, with final conc. of DMSO32 0.1%, 11 points, triplicates. The cells were then treated at 37° C. in the TC incubator for 72 hr. Equal volume (200 μL) of CellTiter-Glo reagent (Promega) was added to the well and protect from light at room temperature for 15 min. The chemiluminicent was measured with EnSight (Perkin Elmer). GraphPad Prism non-linear regression, Log[inhibitor] response with four parameters were used to calculate GI50.

Kasumi−1 = test: Cell viability assay (CellTiter-Glo), Kasumi-1; type: cell-based; conditions: Homo sapiens, Kasumi-1 cells, 72 hr
Experimental: as §3

THP−1 = test: Cell viability assay (CellTiter-Glo), THP-1; type: cell-based; conditions: Homo sapiens, THP-1 cells, 72 hr
Experimental: as §3

FGR = target: T3, FGR (Homo sapiens, UniProt P09769); test: Caliper mobility shift kinase inhibition assay, FGR; type: biochemical; conditions: recombinant kinase; enzyme 0.3 nM, ATP 50 μM, incubation 3 hr
T3 construct: purchased BPS 4022
Experimental: as §1, §2

FMS = target: T4, FMS (Homo sapiens, UniProt P07333); test: Caliper mobility shift kinase inhibition assay, FMS; type: biochemical; conditions: recombinant kinase; enzyme 0.25 nM, ATP 100 μM, incubation 3 hr
T4 construct: purchased Invitrogen PV3249
Experimental: as §1, §2

RON = target: T5, RON (Homo sapiens, UniProt Q04912); test: Caliper mobility shift kinase inhibition assay, RON; type: biochemical; conditions: recombinant kinase; enzyme 0.4 nM, ATP 20 μM, incubation 3 hr
T5 construct: purchased Invitrogen PV4314
Experimental: as §1, §2

T2 sequence (P10721 26-976): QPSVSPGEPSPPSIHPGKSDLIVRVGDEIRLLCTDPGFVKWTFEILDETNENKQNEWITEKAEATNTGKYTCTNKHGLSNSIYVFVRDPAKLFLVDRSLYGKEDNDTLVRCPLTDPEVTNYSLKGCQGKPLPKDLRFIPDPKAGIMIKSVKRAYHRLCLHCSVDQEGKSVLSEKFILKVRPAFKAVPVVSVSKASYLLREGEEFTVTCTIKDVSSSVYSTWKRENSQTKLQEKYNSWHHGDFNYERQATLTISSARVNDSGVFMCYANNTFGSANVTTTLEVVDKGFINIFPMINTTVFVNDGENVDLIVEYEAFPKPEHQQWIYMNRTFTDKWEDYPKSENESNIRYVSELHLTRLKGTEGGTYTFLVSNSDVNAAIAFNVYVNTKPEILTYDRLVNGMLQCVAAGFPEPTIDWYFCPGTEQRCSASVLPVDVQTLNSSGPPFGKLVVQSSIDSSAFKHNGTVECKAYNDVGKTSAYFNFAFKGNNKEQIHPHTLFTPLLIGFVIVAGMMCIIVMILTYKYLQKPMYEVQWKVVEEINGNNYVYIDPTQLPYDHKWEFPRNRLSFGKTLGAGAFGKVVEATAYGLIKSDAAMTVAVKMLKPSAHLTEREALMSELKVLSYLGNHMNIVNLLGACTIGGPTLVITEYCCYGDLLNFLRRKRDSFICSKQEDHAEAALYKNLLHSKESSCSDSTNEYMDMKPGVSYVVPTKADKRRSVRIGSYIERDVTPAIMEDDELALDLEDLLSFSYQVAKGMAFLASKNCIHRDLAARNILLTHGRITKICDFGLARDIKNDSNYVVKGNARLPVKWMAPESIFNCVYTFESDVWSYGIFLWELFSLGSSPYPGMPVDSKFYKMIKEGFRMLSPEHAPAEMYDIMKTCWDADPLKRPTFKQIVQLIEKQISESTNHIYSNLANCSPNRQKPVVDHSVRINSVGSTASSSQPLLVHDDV
T4 sequence (P07333 20-972): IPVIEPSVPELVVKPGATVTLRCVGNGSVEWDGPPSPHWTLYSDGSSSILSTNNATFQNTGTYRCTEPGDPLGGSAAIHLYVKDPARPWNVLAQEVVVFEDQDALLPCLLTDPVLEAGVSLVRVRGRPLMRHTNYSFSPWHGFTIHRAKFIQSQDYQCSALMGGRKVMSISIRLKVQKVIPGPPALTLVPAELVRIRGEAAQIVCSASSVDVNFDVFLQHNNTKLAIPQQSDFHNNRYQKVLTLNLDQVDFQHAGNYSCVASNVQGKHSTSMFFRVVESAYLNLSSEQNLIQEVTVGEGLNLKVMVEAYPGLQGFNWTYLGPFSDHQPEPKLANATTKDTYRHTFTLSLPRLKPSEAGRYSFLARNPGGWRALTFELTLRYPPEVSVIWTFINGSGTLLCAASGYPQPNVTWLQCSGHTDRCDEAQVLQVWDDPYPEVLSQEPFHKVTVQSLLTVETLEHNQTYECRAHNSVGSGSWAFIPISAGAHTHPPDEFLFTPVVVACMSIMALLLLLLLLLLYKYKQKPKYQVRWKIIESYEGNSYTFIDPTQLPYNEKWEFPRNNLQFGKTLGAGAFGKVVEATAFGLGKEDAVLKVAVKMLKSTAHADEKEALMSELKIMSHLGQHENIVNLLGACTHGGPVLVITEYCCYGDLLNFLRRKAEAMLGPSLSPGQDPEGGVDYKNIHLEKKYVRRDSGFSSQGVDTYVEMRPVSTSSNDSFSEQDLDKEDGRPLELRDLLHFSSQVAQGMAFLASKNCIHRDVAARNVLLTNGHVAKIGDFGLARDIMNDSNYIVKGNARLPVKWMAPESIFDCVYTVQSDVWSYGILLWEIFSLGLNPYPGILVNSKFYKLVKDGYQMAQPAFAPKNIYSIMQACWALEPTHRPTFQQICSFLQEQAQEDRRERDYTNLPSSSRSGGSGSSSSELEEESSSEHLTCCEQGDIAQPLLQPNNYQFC
T3 sequence (P09769 whole entry): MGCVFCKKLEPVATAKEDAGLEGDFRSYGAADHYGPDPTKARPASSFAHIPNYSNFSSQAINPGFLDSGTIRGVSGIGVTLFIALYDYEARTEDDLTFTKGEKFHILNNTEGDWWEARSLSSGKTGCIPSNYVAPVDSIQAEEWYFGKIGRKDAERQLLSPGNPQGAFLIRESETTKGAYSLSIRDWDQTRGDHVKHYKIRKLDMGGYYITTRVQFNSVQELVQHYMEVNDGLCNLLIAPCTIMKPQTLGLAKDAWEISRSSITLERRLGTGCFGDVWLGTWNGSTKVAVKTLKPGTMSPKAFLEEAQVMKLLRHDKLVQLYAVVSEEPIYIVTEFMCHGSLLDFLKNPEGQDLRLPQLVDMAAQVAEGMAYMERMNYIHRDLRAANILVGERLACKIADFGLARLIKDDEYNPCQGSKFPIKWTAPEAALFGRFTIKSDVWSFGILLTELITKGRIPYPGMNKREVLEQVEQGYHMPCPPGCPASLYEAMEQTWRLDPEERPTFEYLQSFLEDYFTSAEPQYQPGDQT
T5 sequence (Q04912 25-1400): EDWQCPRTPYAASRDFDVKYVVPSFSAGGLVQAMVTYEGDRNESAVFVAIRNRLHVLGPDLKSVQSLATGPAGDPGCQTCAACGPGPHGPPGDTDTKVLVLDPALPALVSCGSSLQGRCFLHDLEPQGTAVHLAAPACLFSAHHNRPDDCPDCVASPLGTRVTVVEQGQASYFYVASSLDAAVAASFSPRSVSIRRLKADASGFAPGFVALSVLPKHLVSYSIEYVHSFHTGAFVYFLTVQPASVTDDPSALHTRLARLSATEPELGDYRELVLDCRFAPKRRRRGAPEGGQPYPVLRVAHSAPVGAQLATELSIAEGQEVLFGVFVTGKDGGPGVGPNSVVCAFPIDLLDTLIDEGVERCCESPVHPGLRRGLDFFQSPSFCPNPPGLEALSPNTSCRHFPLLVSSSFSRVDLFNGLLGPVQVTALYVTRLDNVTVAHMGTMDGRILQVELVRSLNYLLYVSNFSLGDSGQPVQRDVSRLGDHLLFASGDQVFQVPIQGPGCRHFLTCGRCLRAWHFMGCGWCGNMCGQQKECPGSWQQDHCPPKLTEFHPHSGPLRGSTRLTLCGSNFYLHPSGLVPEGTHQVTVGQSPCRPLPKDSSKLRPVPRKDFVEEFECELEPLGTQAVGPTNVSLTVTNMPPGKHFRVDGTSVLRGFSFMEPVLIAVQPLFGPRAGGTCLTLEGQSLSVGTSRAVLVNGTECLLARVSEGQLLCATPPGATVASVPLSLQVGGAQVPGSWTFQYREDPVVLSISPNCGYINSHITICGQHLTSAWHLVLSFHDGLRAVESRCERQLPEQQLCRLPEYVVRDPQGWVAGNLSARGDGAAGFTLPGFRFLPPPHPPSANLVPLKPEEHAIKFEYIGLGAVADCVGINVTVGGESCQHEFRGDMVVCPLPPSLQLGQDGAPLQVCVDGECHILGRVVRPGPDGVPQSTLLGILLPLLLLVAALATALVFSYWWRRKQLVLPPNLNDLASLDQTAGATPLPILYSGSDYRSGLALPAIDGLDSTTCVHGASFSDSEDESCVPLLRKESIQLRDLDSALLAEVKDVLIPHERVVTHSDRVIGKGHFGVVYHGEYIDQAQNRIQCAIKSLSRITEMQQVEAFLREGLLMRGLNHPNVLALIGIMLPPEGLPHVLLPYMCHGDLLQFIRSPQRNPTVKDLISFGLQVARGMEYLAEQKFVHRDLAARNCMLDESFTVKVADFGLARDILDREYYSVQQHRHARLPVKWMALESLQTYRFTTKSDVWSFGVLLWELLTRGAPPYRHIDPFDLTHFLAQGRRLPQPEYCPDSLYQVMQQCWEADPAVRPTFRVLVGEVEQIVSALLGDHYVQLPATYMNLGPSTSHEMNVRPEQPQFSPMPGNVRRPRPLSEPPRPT

| IC50 (FLT3) | IC50 (KIT) | GI50 (MV4−11) | GI50 (THP−1) | IC50 (FGR) | IC50 (FMS) | IC50 (RON) | SMILES | GI50 (Kasumi−1) |
| --- | --- | --- | --- | --- | --- | --- | --- | --- |
| 10 to 100 nM | 10 to 100 nM | < 10 nM | ≥ 1000 nM |  |  |  | CCC(=O)N(C)[C@@H](C)C(=O)NCCNc1cc(Nc2ncc(-c3ccccc3)s2)nc(C)n1 [Compound 10, (2S)—N-[2-[[2-methyl-6-[(5-phenylthiazol-2-yl)amino]pyrimidin-4-yl]amino]ethyl]-2-[methyl(propanoyl)amino]propanamide] | 10 to 100 nM |
| < 10 nM | < 10 nM | < 10 nM | ≥ 1000 nM |  |  |  | C=CC(=O)N(C)[C@@H](C)C(=O)NCCNc1cc(Nc2ncc(-c3ccncc3)s2)nc(C)n1 [Compound 17, (2S)-2-[methyl(prop-2-enoyl)amino]-N-[2-[[2-methyl-6-[[5-(4-pyridyl)thiazol-2-yl]amino]pyrimidin-4-yl]amino]ethyl]propanamide] | < 10 nM |
| < 10 nM | < 10 nM | < 10 nM | ≥ 1000 nM |  |  |  | C=CC(=O)N(C)[C@@H](C)C(=O)NCCNc1cc(Nc2ncc(-c3ccccc3)s2)nc(C)n1 [Compound 9, (2S)—N-[2-[[2-methyl-6-[(5-phenylthiazol-2-yl)amino]pyrimidin-4-yl]amino]ethyl]-2-[methyl(prop-2-enoyl)amino]propanamide] | < 10 nM |
| < 10 nM | < 10 nM | < 10 nM | ≥ 1000 nM |  |  |  | C=CC(=O)N(C)[C@@H](C)C(=O)NCCOc1cc(Nc2ncc(-c3ccccc3)s2)nc(C)n1 [Compound 13, (2S)—N-[2-[2-methyl-6-[(5-phenylthiazol-2-yl)amino]pyrimidin-4-yl]oxyethyl]-2-[methyl(prop-2-enoyl)amino]propanamide] | < 10 nM |

The next lines start with the molecule.

| SMILES | IC50 (FLT3) | IC50 (KIT) | GI50 (MV4−11) | GI50 (THP−1) | IC50 (FGR) | IC50 (FMS) | IC50 (RON) | GI50 (Kasumi−1) |
| --- | --- | --- | --- | --- | --- | --- | --- | --- |
| C=CC(=O)N(C)[C@@H](C)C(=O)NCCNc1cc(Nc2cc(C3CCC3)[nH]n2)nc(Nc2ccc(CC#N)cc2)n1 [Compound 4, (2S)—N-[2-[[2-[4-(cyanomethyl)anilino]-6-[(5-cyclobutyl-1H-pyrazol-3-yl)amino]pyrimidin-4-yl]amino]ethyl]-2-[methyl(prop-2-enoyl)amino]propanamide] | < 10 nM | 10 to 100 nM | < 10 nM | 100 to 1000 nM |  |  |  | 100 to 1000 nM |
| Cc1cc(Nc2cc(NCCNC(=O)[C@H](C)N(C)C(=O)/C=C/CN(C)C)nc(Nc3ccc(CC#N)cc3)n2)n[nH]1 [Compound 1] | < 10 nM | < 10 nM | < 10 nM | ≥ 1000 nM | 10 to 100 nM | < 10 nM | 100 to 1000 nM | 100 to 1000 nM |
| CC#CC(=O)N(C)[C@@H](C)C(=O)NCCNc1cc(Nc2ncc(-c3ccncc3)s2)nc(C)n1 [Compound 18, N-methyl-N-[(1S)-1-methyl-2-[2-[[2-methyl-6-[[5-(4-pyridyl)thiazol-2-yl]amino]pyrimidin-4-yl]amino]ethylamino]-2-oxo-ethyl]but-2-ynamide] | < 10 nM | < 10 nM | < 10 nM | ≥ 1000 nM |  |  |  | < 10 nM |
| C=CC(=O)N(C)[C@@H](C)C(=O)NCCOc1cc(C)nc(Nc2ncc(-c3ccccc3)s2)c1 [Compound 12, (2S)—N-[2-[[2-methyl-6-[(5-phenylthiazol-2-yl)amino]-4-pyridyl]oxy]ethyl]-2-[methyl(prop-2-enoyl)amino]propanamide] | < 10 nM | < 10 nM | < 10 nM | ≥ 1000 nM |  |  |  | < 10 nM |
| Cc1cc(Nc2cc(NCCNC(=O)[C@@H]3CCCN3C(=O)/C=C/CN(C)C)nc(Nc3ccc(CC#N)cc3)n2)n[nH]1 [Compound 3] | < 10 nM | < 10 nM | 10 to 100 nM | ≥ 1000 nM |  |  |  | ≥ 1000 nM |
| Cc1c(C(=O)NCCNC(=O)[C@H](C)N(C)C(=O)/C=C/CN(C)C)c[nH]c1/C=C1\C(=O)Nc2ccc(F)cc21 [Compound 26, N-(2-((S)-2-((E)-4-(dimethylamino)-N-methylbut-2-enamido)propanamido)ethyl)-5-((Z)-(5-fluoro-2-oxoindolin-3-ylidene)methyl)-4-methyl-1H-pyrrole-3-carboxamide] | < 10 nM | < 10 nM | < 10 nM | ≥ 1000 nM | 100 to 1000 nM | < 10 nM | 100 to 1000 nM |  |
| CC#CC(=O)N(C)[C@@H](C)C(=O)NCCNc1cc(Nc2cc(C3CCC3)[nH]n2)nc(Nc2ccc(CC#N)cc2)n1 [Compound 5, N-[(1S)-2-[2-[[2-[4-(cyanomethyl)anilino]-6-[(5-cyclobutyl-1H-pyrazol-3-yl)amino]pyrimidin-4-yl]amino]ethylamino]-1-methyl-2-oxo-ethyl]-N-methyl-but-2-ynamide] | < 10 nM | 10 to 100 nM | < 10 nM | ≥ 1000 nM |  |  |  | ≥ 1000 nM |
